The assay concerns the target T1, Kv7.1/KCNE1 (Homo sapiens, UniProt P51787).
T1 construct: cRNA encoding Kv7.1 (UniProt: P51787), KCNE1 (UniProt: P15382.1); expressed in transfected cells; host or cells: Xenopus laevis oocytes (cRNA injection, Kv7.1:KCNE1 3:1 by weight)
Briefly: Two-electrode voltage clamp of Kv7.1/KCNE1 expressed in Xenopus oocytes. Type of assay: cell-based. Details: Fitted slope factor of conductance vs voltage relationship: unit of the concentration uncertain. Conditions: for IKs I/I0: relative current at 0 mV. On the procedure: Molecular Biology cRNA encoding Kv7.1 (UniProt: P51787), KCNE1 (UniProt: P15382.1), Nav1.5 (UniProt: Q14524.1), Nav β1 (UniProt: […]), Nav β3 (UniProt: […]), Cav1.2 (GenBank: CAA84346), Cav β3 (Uniprot: P54286), Cav β2 (Uniprot: P54288), and Cav α2δ (Uniprot: P13806) were transcribed using the mMessage mMachine T7 kit (Ambion). 50 ng of cRNA was injected into defolliculated Xenopus laevis oocytes (Ecocyte, Austin, TX): For Kv7.1/KCNE1 channel expression, we injected a 3:1, weight:weight (Kv7.1:KCNE1) cRNA ratio. For Nav1.5 channel expression, we injected a 2:1, weight:weight (Nav1.5:β1) cRNA ratio. For Cav1.2 channel expression, we injected a 2:1:1, weight:weight (Cav1.2:β3:α2δ) cRNA ratio. The exact stoichiometry for channel macromolecular complexes, including α -subunits and auxiliary subunits is not clear for many ion channels. For example, there have been multiple reported stoichiometries for Kv7.1:KCNE1 determined in heterologous expression systems with some groups reporting flexible stoichiometry of 4 Kv7.1: 1–4 KCNE1 and others reporting a fixed stoichiometry of 4 Kv7.1: 2 KCNE1 ([Murray et al., 2016]; [Nakajo et al., 2010]). The ratios of cRNA of α- and auxiliary subunits that we injected in Xenopus laevis oocytes are such that all α-subunits are assumed to be in complex with auxiliary subunits. This allows a more homogenous population of ion channels with auxiliary subunits. One caveat to expressing ion channels as macromolecular complexes is that there are many other auxiliary subunits that could associate with the channel α -subunit that are present in cardiomyocytes and have the potential to alter PUFA-induced effects, but that are not being co-expressed in our experiments. In this work, we are co-expressing some of the auxiliary subunits that have been primarily reported to associate with their respective α -subunits in cardiomyocytes. Following cRNA injection, cells were incubated for 72–96 hr in standard ND96 solution (96 mM NaCl, 2 mM KCl, 1 mM MgCl2, 1.8 mM CaCl2, 5 mM HEPES; pH = 7.5) containing 1 mM pyruvate at 16°C prior to electrophysiological recordings.
Xenopus laevis oocytes were recorded in the two-electrode voltage clamp (TEVC) configuration. Recording pipettes were filled with 3 M KCl. The recording chamber was filled with ND96 (96 mM NaCl, 2 mM KCl, 1 mM MgCl2, 1.8 mM CaCl2, 5 mM HEPES; pH 7.5). For Cav1.2/β3/α2δ channel recordings, Xenopus oocytes were injected with 50 nl of 100 mM EGTA and incubated at 10°C for 30 min prior to electrophysiological recordings in order to sequester cytosolic calcium. In addition, Cav1.2/β3/α2δ channel recordings were done in Ca^2+-free solutions, using Ba^2+ as the charge carrier, to prevent calcium-dependent inactivation of Cav1.2/β3/α2δ channels. Calcium-dependent inactivation was not studied in this work, due to the presence of large calcium-activated chloride currents present in Xenopus laevis oocytes. PUFAs were obtained from Cayman Chemical (Ann Arbor, MI.) or synthesized in house (Linköping, Sweden) through methods previously described ([Bohannon et al., 2020]) and kept at −20 °C as 100 mM stock solutions in ethanol. […] PUFAs were perfused into the recording chamber using the Rainin Dynamax Peristaltic Pump (Model RP-1) (Rainin Instrument Co., Oakland, CA. USA).
Electrophysiological recordings were obtained using Clampex 10.3 software (Axon, pClamp, Molecular Devices). To measure Kv7.1/KCNE1 currents we apply PUFAs as the membrane potential is stepped every 30 s from −80 mV to 0 mV for 5 s before stepping to −40 mV and back to −80 mV to ensure that the PUFA effects on the current at 0 mV reached steady state. A voltage-step protocol was used to measure the current vs. voltage (I-V) relationship before PUFA application and after the PUFA effects had reached steady state for each concentration of PUFA. Cells were held at −80 mV followed by a hyperpolarizing prepulse to −140 mV. […]

For the compound `CCCCC/C=C\C/C=C\CC/C=C\CCCC(=O)NCC(=O)O` [Pin-glycine], the “Fitted slope factor of conductance vs voltage relationship” value amounted to 17.9 ± 0.83 mV (0.2 μM); 17.8 ± 0.84 mV (0.7 μM); 17.9 ± 0.91 mV (2 μM); 18.7 ± 1.1 mV (7 μM); 20.9 ± 1.4 mV (20 μM). The same compound displayed a Gmax/Gmax0 (0.2 μM) of 1.0 ± 0.1; a Gmax/Gmax0 (0.7 μM) of 1.2 ± 0.1; a Gmax/Gmax0 (2 μM) of 1.3 ± 0.1; a Gmax/Gmax0 (7 μM) of 1.7 ± 0.1; a Gmax/Gmax0 (20 μM) of 1.7 ± 0.1. Further, the “ΔV0.5 (voltage dependence of activation)” value reads like this: (0.2 μM) 3.9 ± 0.6 mV; (0.7 μM) 2.3 ± 0.2 mV; (2 μM) 2.3 ± 0.7 mV; (7 μM, listed as pin-glycine) -8.5 ± 1.7 mV; (20 μM) -19.9 ± 2.4 mV. Moreover, the “IKs I/I0” value reads like this: (0.2 μM) 0.7 ± 0.1; (0.7 μM) 1.0 ± 0.1; (2 μM) 1.1 ± 0.1; (7 μM, listed as pin-glycine) 2.4 ± 0.2; (20 μM) 3.6 ± 0.2.

Source of the values: paper PMC7159882, “Polyunsaturated fatty acid analogues differentially affect cardiac NaV, CaV, and KV channels through unique mechanisms” (eLife, 2020).
